Laboratory results: patent EP1561465A2, “Methods of use of fluoroquinolone compounds against bacteria” (LG Life Sciences, Ltd., priority 1999, dated 2001)
In brackets after ≈: the same amount, converted by molar mass.

Key:
Assay type in all cases: cell-based
[1] = tested on: Streptococcus pyogenes; assay: MIC by NCCLS broth microdilution, 1100 Japanese clinical isolates 1997-1998
[2] = tested on: Klebsiella oxytoca; assay: as above; conditions: Klebsiella oxytoca (n=40)
[3] = tested on: Escherichia coli; assay: as above; conditions: for MIC50 / MIC90: Escherichia coli
[4] = tested on: Haemophilus influenzae; assay: MIC by broth microdilution (NCCLS), dried MicroScan panels, clinical isolates 1998-1999; conditions: for MIC90: Haemophilus influenzae
[5] = tested on: Moraxella catarrhalis; assay: MIC by agar dilution (NCCLS), 411 isolates Buenos Aires 1998-99; conditions: Moraxella catarrhalis (n = 59)
[6] = tested on: Providencia rettgeri; assay: MIC by NCCLS broth microdilution, 1100 Japanese clinical isolates 1997-1998; conditions: Providencia rettgeri (n=12)
[7] = tested on: Haemophilus influenzae; assay: MIC by two-fold serial agar dilution, Sensitivity Disk agar-N (Kitasato isolates); conditions: Haemophilus influenzae (24)
[8] = tested on: Acinetobacter spp.; assay: MIC by agar dilution (NCCLS), 322 nosocomial Gram negative isolates, Athens 1998; conditions: n = 38 strains
[9] = tested on: Campylobacter jejuni; assay: MIC by agar dilution (NCCLS M7-A4), 5% sheep blood, microaerophilic 48 h; conditions: Campylobacter jejuni (n=91)
[10] = tested on: Klebsiella pneumoniae; assay: MIC by NCCLS reference broth microdilution, 450 respiratory tract pathogens; conditions: for MIC50 / MIC90: Klebsiella pneumoniae
[11] = tested on: Moraxella catarrhalis; assay: MIC by two-fold serial agar dilution, Sensitivity Disk agar-N (Kitasato isolates); conditions: Moraxella catarrhalis (22)
[12] = tested on: Staphylococcus aureus; assay: MIC by NCCLS reference broth microdilution, 450 respiratory tract pathogens
[13] = tested on: Yersinia enterocolitica; assay: MIC by agar dilution (NCCLS M7-A4), 288 enteropathogenic isolates, eight quinolones; conditions: Yersinia enterocolitica (n = 22)
[14] = tested on: Streptococcus pyogenes; assay: MIC by agar dilution (NCCLS), 411 isolates Buenos Aires 1998-99
[15] = tested on: Aeromonas spp.; assay: MIC by agar dilution (NCCLS M7-A4), 288 enteropathogenic isolates, eight quinolones; conditions: Aeromonas spp. (n = 16)
[16] = tested on: Enterococcus faecium; assay: MIC by NCCLS broth microdilution, 1100 Japanese clinical isolates 1997-1998; conditions: for MIC: Enterococcus faecium
[17] = tested on: Gram positive anaerobic and facultative anaerobic pathogens; assay: microbe, parasite or virus in culture
[18] = tested on: Citrobacter freundii; assay: MIC by NCCLS broth microdilution, 1100 Japanese clinical isolates 1997-1998
[19] = tested on: Streptococcus pneumoniae; assay: MIC by NCCLS reference broth microdilution, 450 respiratory tract pathogens; conditions: Streptococcus pneumoniae
[20] = MIC by agar dilution, Brucella HK agar, 491 anaerobic clinical isolates; conditions: clinical isolates of Bacteroides spp., Prevotella bivia and other Prevotella spp.
[21] = Escherichia coli ciprofloxacin susceptible (n=37)
[22] = Haemophilus influenzae (300 isolates)
[23] = extended spectrum β-lactamase negative (n = 30)
[24] = extended spectrum β-lactamase positive (n = 20)
[25] = β-lactamase positive and erythromycin resistant (n = 10)
[26] = Streptococcus pneumoniae (n = 100)
[27] = erythromycin resistant M phenotype (n = 16)
[28] = erythromycin resistant MLSB phenotype (n = 16)
[29] = penicillin intermediate (n = 16)
[30] = penicillin susceptible (n = 20)

## N[C@@H]1[C@H]2CN(c3nc4c(cc3F)c(=O)c(C(=O)O)cn4-c3ccc(F)cc3F)C[C@@H]12 [Trovafloxacin, trovafloxacin]
[1]; Streptococcus pyogenes
  MIC50: 0.125 µg/mL (≈ 0.3 µM)
[1]; Streptococcus pyogenes (n=51)
  MIC90: 0.5 µg/mL (≈ 1.2 µM)
  MIC Range: 0.063 to 0.5 µg/mL
[2]
  MIC50: 0.032 µg/mL (≈ 0.0769 µM)
  MIC90: 8 µg/mL (≈ 19.2 µM)
  MIC Range: ≤0.008 to 32 µg/mL
[3]; [21]
  MIC Range: ≤0.008 to 0.25 µg/mL
  MIC50: 0.016 µg/mL (≈ 0.0384 µM)
  MIC90: 0.032 µg/mL (≈ 0.0769 µM)
[3]; Escherichia coli ciprofloxacin resistant (n=5)
  MIC50: 64 µg/mL (≈ 154 µM)
[3]; Escherichia coli ciprofloxacin resistant (n=5), values marked *: MIC80 value
  MIC90: 64 µg/mL (≈ 154 µM)
[4]; [22]
  MIC50: ≤ 0.015 µg/mL
  MIC Range: ≤0.015 to 0.25 µg/mL
  MIC90: ≤ 0.015 µg/mL
[4]; β-lactamase negative (234)
  MIC90: ≤ 0.015 µg/mL
[4]; β-lactamase positive (66)
  MIC90: 0.03 µg/mL (≈ 0.0721 µM)
[5]
  MIC Range: ≤0.004 to 0.03 µg/mL
[5]; read-out: MIC90
  MIC90: 0.016 µg/mL (≈ 0.0384 µM)
[6]
  MIC90: 8 µg/mL (≈ 19.2 µM)
  MIC Range: 0.125 to 8 µg/mL
[6]; read-out: MIC50
  MIC50: 0.25 µg/mL (≈ 0.6 µM)
[7]
  MIC50: 0.016 µg/mL (≈ 0.0384 µM)
  MIC90: 0.031 µg/mL (≈ 0.0745 µM)
  MIC Range: ≤0.004 to 0.031 µg/mL
[8]; Acinetobacter
  MIC50: 2 µg/mL (≈ 4.8 µM)
  MIC90: 16 µg/mL (≈ 38.4 µM)
[8]
  MIC Range: ≤0.03 to 32 µg/mL
[9]
  % Susceptible: 31.86%
  MIC50: 8 µg/mL (≈ 19.2 µM)
  MIC90: 8 µg/mL (≈ 19.2 µM)
  MIC Range: ≤0.015 to 32 µg/mL
[10]; Klebsiella pneumoniae (n = 50)
  MIC Range: ≤0.0075 to 0.5 µg/mL
  MIC50: 0.06 µg/mL (≈ 0.144 µM)
  MIC90: 0.5 µg/mL (≈ 1.2 µM)
[10]; [23]
  MIC50: 0.06 µg/mL (≈ 0.144 µM)
  MIC90: 0.12 µg/mL (≈ 0.288 µM)
  MIC Range: ≤0.0075 to 0.015 µg/mL
[10]; [24]
  MIC50: 0.5 µg/mL (≈ 1.2 µM)
  MIC90: 0.5 µg/mL (≈ 1.2 µM)
  MIC Range: 0.06 to 0.5 µg/mL
[11]
  MIC50: 0.016 µg/mL (≈ 0.0384 µM)
  MIC90: 0.031 µg/mL (≈ 0.0745 µM)
  MIC Range: 0.016 to 0.031 µg/mL
[12]; Staphylococcus aureus (n = 50)
  MIC: 0.00375 to 0.5 µg/mL (≈ 0.00901 to 1.2 µM)
  MIC50: 0.12 µg/mL (≈ 0.288 µM)
  MIC90: 0.25 µg/mL (≈ 0.6 µM)
[12]; β-lactamase negative (n = 20)
  MIC: 0.00375 to 0.25 µg/mL (≈ 0.00901 to 0.6 µM)
  MIC50: 0.12 µg/mL (≈ 0.288 µM)
  MIC90: 0.25 µg/mL (≈ 0.6 µM)
[12]; β-lactamase positive (n = 20)
  MIC: 0.06 to 0.5 µg/mL (≈ 0.144 to 1.2 µM)
  MIC50: 0.12 µg/mL (≈ 0.288 µM)
  MIC90: 0.25 µg/mL (≈ 0.6 µM)
[12]; [25]
  MIC: 0.00375 to 0.25 µg/mL (≈ 0.00901 to 0.6 µM)
  MIC50: 0.12 µg/mL (≈ 0.288 µM)
  MIC90: 0.25 µg/mL (≈ 0.6 µM)
[13]
  % Susceptible: 100%
  MIC50: 0.06 µg/mL (≈ 0.144 µM)
  MIC90: 0.06 µg/mL (≈ 0.144 µM)
  MIC Range: ≤0.015 to 0.25 µg/mL
[14]; Streptococcus pyogenes
  MIC90: 0.125 µg/mL (≈ 0.3 µM)
[14]; Streptococcus pyogenes (n = 69)
  MIC Range: 0.06 to 1 µg/mL
[15]
  % Susceptible: 100%
  MIC50: ≤ 0.015 µg/mL
  MIC90: 0.03 µg/mL (≈ 0.0721 µM)
  MIC Range: ≤0.015 to 0.25 µg/mL
[16]; Enterococcus faecium (n=39)
  MIC50: 16 µg/mL (≈ 38.4 µM)
  MIC90: 64 µg/mL (≈ 154 µM)
  MIC Range: 0.25 to 64 µg/mL
[16]; Enterococcus faecium (vanA) vancomycin resistant, strain TMS1
  MIC: 8 µg/mL (≈ 19.2 µM)
[16]; Enterococcus faecium (vanA) vancomycin resistant, strain TMS2
  MIC: 1 µg/mL (≈ 2.4 µM)
[16]; Enterococcus faecium (vanA) vancomycin resistant, strain TMS3
  MIC: 8 µg/mL (≈ 19.2 µM)
[16]; Enterococcus faecium (vanA) vancomycin resistant, strain TMS4
  MIC: 8 µg/mL (≈ 19.2 µM)
[16]; Enterococcus faecium (vanA) vancomycin resistant, strain TMS5
  MIC: 2 µg/mL (≈ 4.8 µM)
[16]; Enterococcus laecium (van B) vancomycin resistant, strain TMS6
  MIC: 32 µg/mL (≈ 76.9 µM)
[16]; Enterococcus laecium (van B) vancomycin resistant, strain TMS7
  MIC: 32 µg/mL (≈ 76.9 µM)
[17]; Bifidobacterium adolescentis, ATCC15703
  MIC: 1 µg/mL (≈ 2.4 µM)
[17]; Bifidobacterium bifidum, JCM1255
  MIC: 4 µg/mL (≈ 9.61 µM)
[17]; Bifidobacterium breve, ATCC15700
  MIC: 4 µg/mL (≈ 9.61 µM)
[17]; Bifidobacterium longum, ATCC15707
  MIC: 4 µg/mL (≈ 9.61 µM)
[17]; Bifidobacterium pseudolongum, ATCC25526
  MIC: 4 µg/mL (≈ 9.61 µM)
[17]; Clostridioides difficile
  MIC: 1 µg/mL (≈ 2.4 µM)
[17]; Clostridium perfringens, ATCC13124
  MIC: 0.125 µg/mL (≈ 0.3 µM)
[17]; Clostridium septicum, ATCC12464
  MIC: 0.125 µg/mL (≈ 0.3 µM)
[17]; Cutibacterium acnes, ATCC11828
  MIC: 1 µg/mL (≈ 2.4 µM)
[17]; Eggerthella lenta, ATCC25559
  MIC: 0.5 µg/mL (≈ 1.2 µM)
[17]; Finegoldia magna, ATCC29328
  MIC: 0.125 µg/mL (≈ 0.3 µM)
[17]; Gemella morbillorum, ATCC27824
  MIC: 0.25 µg/mL (≈ 0.6 µM)
[17]; Lacticaseibacillus casei, JCM1134
  MIC: 0.06 µg/mL (≈ 0.144 µM)
[17]; Lactiplantibacillus plantarum, JCM1149
  MIC: 4 µg/mL (≈ 9.61 µM)
[17]; Lactobacillus acidophilus, JCM1132
  MIC: 4 µg/mL (≈ 9.61 µM)
[17]; Levilactobacillus brevis, JCM1059
  MIC: 1 µg/mL (≈ 2.4 µM)
[17]; Ligilactobacillus salivarius, JCM1231
  MIC: 0.125 µg/mL (≈ 0.3 µM)
[17]; Limosilactobacillus reuteri, JCM1112
  MIC: 1 µg/mL (≈ 2.4 µM)
[17]; Limosilactobacillus reuteri, JCM1173
  MIC: 1 µg/mL (≈ 2.4 µM)
[17]; Paraclostridium sordellii, ATCC9714
  MIC: 0.25 µg/mL (≈ 0.6 µM)
[17]; Parvimonas micra
  MIC: 0.06 µg/mL (≈ 0.144 µM)
[17]; Peptoniphilus asaccharolyticus
  MIC: 0.5 µg/mL (≈ 1.2 µM)
[17]; Peptoniphilus indolicus
  MIC: 0.125 µg/mL (≈ 0.3 µM)
[17]; Peptostreptococcus anaerobius, ATCC27337
  MIC: 0.06 µg/mL (≈ 0.144 µM)
[17]; Schaalia odontolytica
  MIC: 4 µg/mL (≈ 9.61 µM)
[17]; Staphylococcus saccharolyticus, ATCC14953
  MIC: 0.06 µg/mL (≈ 0.144 µM)
[17]; Streptococcus constellatus, ATCC27823
  MIC: 0.125 µg/mL (≈ 0.3 µM)
[17]; Streptococcus intermedius, ATCC27335
  MIC: 0.125 µg/mL (≈ 0.3 µM)
[17]; Thomasclavelia ramosa, ATCC25582
  MIC: 0.5 µg/mL (≈ 1.2 µM)
[18]; Citrobacter freundii
  MIC50: 0.125 µg/mL (≈ 0.3 µM)
[18]; Citrobacter freundii (n=39)
  MIC90: 2 µg/mL (≈ 4.8 µM)
  MIC Range: ≤0.008 to 4 µg/mL
[19]; [26]
  MIC: 0.03 to 0.25 µg/mL (≈ 0.0721 to 0.6 µM)
  MIC50: 0.12 µg/mL (≈ 0.288 µM)
  MIC90: 0.12 µg/mL (≈ 0.288 µM)
[19]; [27]
  MIC: 0.06 to 0.12 µg/mL (≈ 0.144 to 0.288 µM)
  MIC50: 0.06 µg/mL (≈ 0.144 µM)
  MIC90: 0.12 µg/mL (≈ 0.288 µM)
[19]; [28]
  MIC: 0.06 to 0.12 µg/mL (≈ 0.144 to 0.288 µM)
  MIC50: 0.06 µg/mL (≈ 0.144 µM)
  MIC90: 0.12 µg/mL (≈ 0.288 µM)
[19]; multi-drug resistant (n = 16)
  MIC: 0.06 to 0.12 µg/mL (≈ 0.144 to 0.288 µM)
  MIC50: 0.06 µg/mL (≈ 0.144 µM)
  MIC90: 0.12 µg/mL (≈ 0.288 µM)
[19]; [29]
  MIC: 0.06 to 0.12 µg/mL (≈ 0.144 to 0.288 µM)
  MIC50: 0.12 µg/mL (≈ 0.288 µM)
  MIC90: 0.12 µg/mL (≈ 0.288 µM)
[19]; penicillin resistant (n = 18)
  MIC: 0.06 to 0.25 µg/mL (≈ 0.144 to 0.6 µM)
  MIC50: 0.12 µg/mL (≈ 0.288 µM)
  MIC90: 0.12 µg/mL (≈ 0.288 µM)
[19]; [30]
  MIC: 0.06 to 0.12 µg/mL (≈ 0.144 to 0.288 µM)
  MIC50: 0.12 µg/mL (≈ 0.288 µM)
  MIC90: 0.12 µg/mL (≈ 0.288 µM)
[20]
  MIC90: 1 to 8 µg/mL (≈ 2.4 to 19.2 µM)
